# Source: ChEMBL document CHEMBL1201862, “PubChem BioAssay data set” (2004)
#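 Cells were grown in 96-well plates and exposed to each compound for 48 hours at five concentrations; endpoints were interpolated linearly between bracketing concentrations, or set to the highest concentration if not reached. GI50: concentration for 50% inhibition of growth.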 Active and inactive are the calls of the source. No stated cut-off is given here; in the data, active = GI50 up to about 1.1 µM and inactive = higher.
# Key:
# Assay in all cases: NCI-60 cell line screen, 48 h
# [1] = tested on: MDA-N
# [2] = tested on: HCT-15
# [3] = tested on: NCI-H23
# [4] = tested on: NCI-H522
# [5] = tested on: MCF7
# [6] = tested on: KM12
# [7] = tested on: OVCAR-5
# [8] = tested on: TK-10
# [9] = tested on: UACC-62
# [10] = tested on: T47D
# [11] = tested on: SN12C
# [12] = tested on: K562
# [13] = tested on: LOX IMVI
# [14] = tested on: BT-549
# [15] = tested on: UACC-257
# [16] = tested on: Malme-3M
# [17] = tested on: MOLT-4
# [18] = tested on: MDA-MB-231
# [19] = tested on: HT-29
# [20] = tested on: CCRF-CEM
# [21] = tested on: U-251
# [22] = tested on: SNB-75
# [23] = tested on: ACHN
# [24] = tested on: SF-295
# [25] = tested on: SF-268
# [26] = tested on: EKVX
# [27] = tested on: HOP-62
# [28] = tested on: MDA-MB-435
# [29] = tested on: NCI-H226
# [30] = tested on: M14
# [31] = tested on: RXF 393
# [32] = tested on: HOP-92
# [33] = tested on: COLO 205
# [34] = tested on: SK-OV-3
# [35] = tested on: SK-MEL-28
# [36] = tested on: SK-MEL-5
# [37] = tested on: NCI/ADR-RES
# [38] = tested on: SR
# [39] = tested on: OVCAR-4
# [40] = tested on: HCT-116
# [41] = tested on: Hs-578T
# [42] = tested on: HCC 2998
# [43] = tested on: UO-31
# [44] = tested on: CAKI-1
# [45] = tested on: OVCAR-8
# [46] = tested on: SNB-19
# [47] = tested on: SK-MEL-2
# [48] = tested on: PC-3
# [49] = tested on: A498
# [50] = tested on: A549
# [51] = tested on: NCI-H460
# [52] = tested on: SW-620
# [53] = tested on: 786-0
# [54] = tested on: DU-145
# [55] = tested on: IGROV-1
# [56] = tested on: HL-60
# [57] = tested on: RPMI-8226
# [58] = tested on: OVCAR-3
# [59] = tested on: SF-539
compound,measurement,setting,value
COc1ccc(N2C(=O)/C(=C\c3ccccc3)SC2c2cc(OC)c(OC)c(OC)c2)cc1 (stereo not given),GI50,[1],16.9 µM (inactive)
same,GI50,[2],> 100 µM
same,GI50,[3],92.7 µM (inactive)
same,GI50,[4],14.2 µM (inactive)
same,GI50,[5],38.4 µM (inactive)
same,GI50,[6],44.3 µM (inactive)
same,GI50,[7],> 100 µM (inactive)
same,GI50,[8],> 100 µM (inactive)
same,GI50,[9],52.5 µM (inactive)
same,GI50,[10],20.1 µM (inactive)
same,GI50,[11],> 100 µM (inactive)
same,GI50,[12],28.5 µM (inactive)
same,GI50,[13],56.9 µM (inactive)
same,GI50,[14],> 100 µM (inactive)
same,GI50,[15],> 100 µM (inactive)
same,GI50,[16],> 100 µM (inactive)
same,GI50,[17],65.6 µM (inactive)
same,GI50,[18],88.5 µM (inactive)
same,GI50,[19],96.6 µM (inactive)
same,GI50,[20],10.7 µM (inactive)
same,GI50,[21],43.9 µM (inactive)
same,GI50,[22],8.05 µM (inactive)
same,GI50,[23],60.3 µM (inactive)
same,GI50,[24],> 100 µM (inactive)
same,GI50,[25],> 100 µM (inactive)
same,GI50,[26],15 µM (inactive)
same,GI50,[27],65.8 µM (inactive)
same,GI50,[28],20 µM (inactive)
same,GI50,[29],> 100 µM (inactive)
same,GI50,[30],28.5 µM (inactive)
same,GI50,[31],31.3 µM (inactive)
same,GI50,[32],> 100 µM (inactive)
same,GI50,[33],74.1 µM (inactive)
same,GI50,[34],48.9 µM (inactive)
same,GI50,[35],> 100 µM (inactive)
same,GI50,[36],48.4 µM (inactive)
same,GI50,[37],> 100 µM (inactive)
same,GI50,[38],29.9 µM (inactive)
same,GI50,[39],82.4 µM (inactive)
same,GI50,[40],32.1 µM (inactive)
same,GI50,[41],84.5 µM (inactive)
same,GI50,[42],> 100 µM (inactive)
same,GI50,[43],50.4 µM (inactive)
same,GI50,[44],46.8 µM (inactive)
same,GI50,[45],> 100 µM (inactive)
same,GI50,[46],> 100 µM (inactive)
same,GI50,[47],30.4 µM (inactive)
same,GI50,[48],39.2 µM (inactive)
same,GI50,[49],73.8 µM (inactive)
same,GI50,[50],> 100 µM (inactive)
CCOC(=O)c1c(N)n(-c2ccccc2)c(=S)n(-c2ccccc2)c1=O,GI50,[1],> 100 µM (inactive)
same,GI50,[2],> 100 µM
same,GI50,[3],> 100 µM (inactive)
same,GI50,[4],> 100 µM (inactive)
same,GI50,[51],> 100 µM (inactive)
same,GI50,[5],> 100 µM (inactive)
same,GI50,[52],> 100 µM (inactive)
same,GI50,[6],> 100 µM (inactive)
same,GI50,[7],> 100 µM (inactive)
same,GI50,[8],> 100 µM (inactive)
same,GI50,[9],> 100 µM (inactive)
same,GI50,[10],> 100 µM (inactive)
same,GI50,[11],> 100 µM (inactive)
same,GI50,[12],> 100 µM (inactive)
same,GI50,[53],> 100 µM (inactive)
same,GI50,[13],> 100 µM (inactive)
same,GI50,[14],> 100 µM (inactive)
same,GI50,[54],> 100 µM (inactive)
same,GI50,[15],> 100 µM (inactive)
same,GI50,[16],> 100 µM (inactive)
same,GI50,[17],> 100 µM (inactive)
same,GI50,[18],> 100 µM (inactive)
same,GI50,[55],> 100 µM (inactive)
same,GI50,[19],> 100 µM (inactive)
same,GI50,[20],> 100 µM (inactive)
same,GI50,[56],> 100 µM (inactive)
same,GI50,[57],> 100 µM (inactive)
same,GI50,[21],> 100 µM (inactive)
same,GI50,[22],> 100 µM (inactive)
same,GI50,[23],> 100 µM (inactive)
same,GI50,[24],> 100 µM (inactive)
same,GI50,[25],> 100 µM (inactive)
same,GI50,[28],> 100 µM (inactive)
same,GI50,[29],> 100 µM (inactive)
same,GI50,[30],> 100 µM (inactive)
same,GI50,[31],> 100 µM (inactive)
same,GI50,[32],> 100 µM (inactive)
same,GI50,[33],> 100 µM (inactive)
same,GI50,[35],> 100 µM (inactive)
same,GI50,[36],> 100 µM (inactive)
same,GI50,[38],> 100 µM (inactive)
same,GI50,[39],> 100 µM (inactive)
same,GI50,[41],> 100 µM (inactive)
same,GI50,[42],> 100 µM (inactive)
same,GI50,[43],> 100 µM (inactive)
same,GI50,[45],> 100 µM (inactive)
same,GI50,[46],> 100 µM (inactive)
same,GI50,[58],> 100 µM (inactive)
same,GI50,[47],> 100 µM (inactive)
same,GI50,[50],> 100 µM (inactive)
N#Cc1ccccc1NC(=O)C(=O)c1c(O)c2ccccc2oc1=O,GI50,[1],> 100 µM (inactive)
same,GI50,[2],> 100 µM
same,GI50,[3],> 100 µM (inactive)
same,GI50,[4],> 100 µM (inactive)
same,GI50,[51],> 100 µM (inactive)
same,GI50,[5],> 100 µM (inactive)
same,GI50,[52],> 100 µM (inactive)
same,GI50,[6],> 100 µM (inactive)
same,GI50,[7],> 100 µM (inactive)
same,GI50,[8],> 100 µM (inactive)
same,GI50,[9],> 100 µM (inactive)
same,GI50,[10],> 100 µM (inactive)
same,GI50,[11],> 100 µM (inactive)
same,GI50,[12],> 100 µM (inactive)
same,GI50,[53],> 100 µM (inactive)
same,GI50,[13],> 100 µM (inactive)
same,GI50,[14],> 100 µM (inactive)
same,GI50,[15],> 100 µM (inactive)
same,GI50,[16],> 100 µM (inactive)
same,GI50,[18],> 100 µM (inactive)
same,GI50,[55],> 100 µM (inactive)
same,GI50,[19],> 100 µM (inactive)
same,GI50,[20],> 100 µM (inactive)
same,GI50,[56],> 100 µM (inactive)
same,GI50,[57],> 100 µM (inactive)
same,GI50,[21],> 100 µM (inactive)
same,GI50,[22],> 100 µM (inactive)
same,GI50,[23],> 100 µM (inactive)
same,GI50,[24],> 100 µM (inactive)
same,GI50,[25],> 100 µM (inactive)
same,GI50,[26],> 100 µM (inactive)
same,GI50,[27],> 100 µM (inactive)
same,GI50,[28],> 100 µM (inactive)
same,GI50,[29],> 100 µM (inactive)
same,GI50,[30],> 100 µM (inactive)
same,GI50,[31],> 100 µM (inactive)
same,GI50,[32],> 100 µM (inactive)
same,GI50,[34],> 100 µM (inactive)
same,GI50,[35],> 100 µM (inactive)
same,GI50,[36],> 100 µM (inactive)
same,GI50,[37],> 100 µM (inactive)
same,GI50,[39],> 100 µM (inactive)
same,GI50,[40],> 100 µM (inactive)
same,GI50,[41],> 100 µM (inactive)
same,GI50,[59],> 100 µM (inactive)
same,GI50,[42],> 100 µM (inactive)
same,GI50,[43],> 100 µM (inactive)
same,GI50,[44],> 100 µM (inactive)
same,GI50,[45],> 100 µM (inactive)
same,GI50,[46],> 100 µM (inactive)
same,GI50,[58],> 100 µM (inactive)
same,GI50,[47],> 100 µM (inactive)
same,GI50,[48],> 100 µM (inactive)
same,GI50,[49],> 100 µM (inactive)
same,GI50,[50],> 100 µM (inactive)
